Measurements reported in patent US10323060B2, “Benzoic acid derivatives of bile acid as FXR/TGR5 agonists and methods of use thereof” (ENANTA PHARMACEUTICALS, INC., priority 2016, dated 2019).

Target: human FXR (NR1H4) (Homo sapiens (Human), UniProt Q96RI1)
Experiment: Human FXR (NR1H4) Assay (luciferase reporter, Indigo Bioscience kit); for Efficacy (%): efficacy normalized to CDCA set as 100%
Format: cell-based
Conditions: for EC50: FXR agonistic potency range, CHO reporter cells expressing human NR1H4, 22 hours incubation; for Emax: read-out: Efficacy (%)
Excerpt: Assays Human FXR (NR1H4) Assay
Determination of a ligand mediated Gal4 promoter driven transactivation to quantify ligand binding mediated activation of FXR. FXR Reporter Assay kit purchased from Indigo Bioscience (Catalogue number: IB00601) to determine the potency and efficacy of compound developed by Enanta that can induce FXR activation. The principle application of this reporter assay system is to quantify functional activity of human FXR. The assay utilizes non-human mammalian cells, CHO (Chinese hamster ovary) cells engineered to express human NR1H4 protein (referred to as FXR). Reporter cells also incorporate the cDNA encoding beetle luciferase which catalyzes the substrates and yields photon emission. Luminescence intensity of the reaction is quantified using a plate-reading luminometer, Envision. Reporter Cells include the luciferase reporter gene functionally linked to an FXR responsive promoter. Thus, quantifying changes in luciferase expression in the treated reporter cells provides a sensitive surrogate measure of the changes in FXR activity. […] The assay is according to the manufacturer's instructions. In brief, the assay was performed in white, 96 well plates using final volume of 100 ul containing cells with different doses of compounds. Retrieve Reporter Cells from −80° C. storage. Perform a rapid thaw of the frozen cells by transferring a 10 ml volume of 37° C. cell recovery medium into the tube of frozen cells. Recap the tube of Reporter Cells and immediately place it in a 37° C. water bath for 5-10 minutes. Retrieve the tube of Reporter Cell Suspension from the water bath. Sanitize the outside surface of the tube with a 70% alcohol swab, and then transfer it into the cell culture hood. Dispense 90 μl of cell suspension into each well of the 96-well Assay Plate. Transfer the plate into 37° C. incubator, allowing the cells adherent to the bottom of the well. Dilute compounds in Dilution Plate (DP), and administrate to cells at Assay Plate (AP). DMSO content of the samples was kept at 0.2%. Cells were incubated for additional 22 hours before luciferase activities were measured. Thirty minutes before intending to quantify FXR activity, remove Detection Substrate and Detection Buffer from the refrigerator and place them in a low-light area so that they may equilibrate to room temperature. Remove the plate's lid and discard all media contents by ejecting it into an appropriate waste container. Gently tap the inverted plate onto a clean absorbent paper towel to remove residual droplets. Cells will remain tightly adhered to well bottoms. Add 100 μl of luciferase detection reagent to each well of the assay plate. Allow the assay plate to rest at room temperature for at least 5 minutes following the addition of LDR. Set the instrument (Envision) to perform a single 5 second “plate shake” prior to reading the first assay well. Read time may be 0.5 second (500 mSec) per well.

human FXR (NR1H4), sequence (Q96RI1 whole entry): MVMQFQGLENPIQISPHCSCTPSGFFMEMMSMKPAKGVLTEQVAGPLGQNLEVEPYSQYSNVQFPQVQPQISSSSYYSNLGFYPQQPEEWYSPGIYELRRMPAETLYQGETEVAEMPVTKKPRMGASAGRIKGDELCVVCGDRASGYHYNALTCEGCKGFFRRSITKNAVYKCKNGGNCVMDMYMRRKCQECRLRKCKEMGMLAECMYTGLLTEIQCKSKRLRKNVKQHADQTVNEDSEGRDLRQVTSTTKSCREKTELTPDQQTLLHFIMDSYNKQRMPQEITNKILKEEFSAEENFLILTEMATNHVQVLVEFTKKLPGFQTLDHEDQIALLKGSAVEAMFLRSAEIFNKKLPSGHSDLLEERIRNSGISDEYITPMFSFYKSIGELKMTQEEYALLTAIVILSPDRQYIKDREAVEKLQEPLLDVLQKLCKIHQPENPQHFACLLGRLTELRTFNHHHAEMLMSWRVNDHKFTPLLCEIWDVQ

Structure (SMILES) | EC50 | Emax
CC[C@H]1[C@@H](O)[C@@H]2[C@H](CC[C@]3(C)[C@@H]([C@H](C)C/C=C/c4ccccc4C(=O)OC)CC[C@@H]23)[C@@]2(C)CC[C@@H](O)C[C@@H]12 [Example 1] | 1000 to 10000 nM | 217%
CC[C@H]1[C@@H](O)[C@@H]2[C@H](CC[C@]3(C)[C@@H]([C@H](C)C/C=C/c4ccccc4C(=O)O)CC[C@@H]23)[C@@]2(C)CC[C@@H](O)C[C@@H]12 [Example 2] | < 100 nM | 313%
CC[C@H]1[C@@H](O)[C@@H]2[C@H](CC[C@]3(C)[C@@H]([C@H](C)CCCc4ccccc4C(=O)O)CC[C@@H]23)[C@@]2(C)CC[C@@H](O)C[C@@H]12 [Example 3] | 100 to 1000 nM | 352%
CC[C@H]1[C@@H](O)[C@@H]2[C@H](CC[C@]3(C)[C@@H]([C@H](C)CC=Cc4cc(F)c(O)c(F)c4)CC[C@@H]23)[C@@]2(C)CC[C@@H](O)C[C@@H]12 [Example 4] | 100 to 1000 nM | 298%
CC[C@H]1[C@@H](O)[C@@H]2[C@H](CC[C@]3(C)[C@@H]([C@H](C)CCCc4cc(F)c(O)c(F)c4)CC[C@@H]23)[C@@]2(C)CC[C@@H](O)C[C@@H]12 [Example 5] | 1000 to 10000 nM | 271%
CC[C@H]1[C@@H](O)[C@@H]2[C@H](CC[C@]3(C)[C@@H]([C@H](C)Cc4nc5c(C(=O)OC)cccc5o4)CC[C@@H]23)[C@@]2(C)CC[C@@H](O)C[C@@H]12 [Example 6] | 1000 to 10000 nM | 131%
CC[C@H]1[C@@H](O)[C@@H]2[C@H](CC[C@]3(C)[C@@H]([C@H](C)Cc4nc5c(C(=O)O)cccc5o4)CC[C@@H]23)[C@@]2(C)CC[C@@H](O)C[C@@H]12 [Example 7] | 100 to 1000 nM | 195%
CC[C@H]1[C@@H](O)[C@@H]2[C@H](CC[C@]3(C)[C@@H]([C@H](C)CCCn4nnc(CC(=O)O)n4)CC[C@@H]23)[C@@]2(C)CC[C@@H](O)C[C@@H]12 [Example 8] | 1000 to 10000 nM | 29%
CC[C@H]1[C@@H](O)[C@@H]2[C@H](CC[C@]3(C)[C@@H]([C@H](C)CCCn4nnnc4CC(=O)O)CC[C@@H]23)[C@@]2(C)CC[C@@H](O)C[C@@H]12 [Example 9] | 1000 to 10000 nM | 172%
CC[C@H]1[C@@H](O)[C@@H]2[C@H](CC[C@]3(C)[C@@H]([C@H](C)CC4CC4c4ccccc4C(=O)O)CC[C@@H]23)[C@@]2(C)CC[C@@H](O)C[C@@H]12 (stereo partly shown) [Example 10] | 100 to 1000 nM | 252%
CC[C@H]1[C@@H](O)[C@@H]2[C@H](CC[C@]3(C)[C@@H]([C@H](C)CCOc4ccccc4C(=O)O)CC[C@@H]23)[C@@]2(C)CC[C@@H](O)C[C@@H]12 [Example 11] |  | 388%
CC[C@H]1[C@@H](O)[C@@H]2[C@H](CC[C@]3(C)[C@@H]([C@H](C)C/C=C/c4ccc(C(=O)OC)c(O)c4)CC[C@@H]23)[C@@]2(C)CC[C@@H](O)C[C@@H]12 [Example 12] | 1000 to 10000 nM | 134%
CC[C@H]1[C@@H](O)[C@@H]2[C@H](CC[C@]3(C)[C@@H]([C@H](C)C/C=C/c4ccc(C(=O)O)c(O)c4)CC[C@@H]23)[C@@]2(C)CC[C@@H](O)C[C@@H]12 [Example 13] | 100 to 1000 nM | 166%
CC[C@H]1[C@@H](O)[C@@H]2[C@H](CC[C@]3(C)[C@@H]([C@H](C)CCCc4ccc(C(=O)O)c(O)c4)CC[C@@H]23)[C@@]2(C)CC[C@@H](O)C[C@@H]12 [Example 14] | 1000 to 10000 nM | 232%
CC[C@H]1[C@@H](O)[C@@H]2[C@H](CC[C@]3(C)[C@@H]([C@H](C)C/C=C/c4ccc(C(C)C(=O)OC)cc4)CC[C@@H]23)[C@@]2(C)CC[C@@H](O)C[C@@H]12 (stereo partly shown) [Example 15] | 1000 to 10000 nM | 40%
CC[C@H]1[C@@H](O)[C@@H]2[C@H](CC[C@]3(C)[C@@H]([C@H](C)C/C=C/c4ccc(C(C)C(=O)O)cc4)CC[C@@H]23)[C@@]2(C)CC[C@@H](O)C[C@@H]12 (stereo partly shown) [Example 16] | 1000 to 10000 nM | 248%
CC[C@H]1[C@@H](O)[C@@H]2[C@H](CC[C@]3(C)[C@@H]([C@H](C)CCCc4ccc(C(C)C(=O)O)cc4)CC[C@@H]23)[C@@]2(C)CC[C@@H](O)C[C@@H]12 (stereo partly shown) [Example 17] | 1000 to 10000 nM | 261%

Structure (SMILES) | EC50 | Emax
CC[C@H]1[C@@H](O)[C@@H]2[C@H](CC[C@]3(C)[C@@H]([C@H](C)C/C=C/c4ccc(C(=O)OC)cc4)CC[C@@H]23)[C@@]2(C)CC[C@@H](O)C[C@@H]12 [Example 18] | 1000 to 10000 nM | 113%
CC[C@H]1[C@@H](O)[C@@H]2[C@H](CC[C@]3(C)[C@@H]([C@H](C)C/C=C/c4ccc(C(=O)O)cc4)CC[C@@H]23)[C@@]2(C)CC[C@@H](O)C[C@@H]12 [Example 19] | 100 to 1000 nM | 244%
CC[C@H]1[C@@H](O)[C@@H]2[C@H](CC[C@]3(C)[C@@H]([C@H](C)CCCc4ccc(C(=O)O)cc4)CC[C@@H]23)[C@@]2(C)CC[C@@H](O)C[C@@H]12 [Example 20] | 1000 to 10000 nM | 266%
CC[C@H]1[C@@H](O)[C@@H]2[C@H](CC[C@]3(C)[C@@H]([C@H](C)C/C=C/c4cccc(C(=O)OC)c4)CC[C@@H]23)[C@@]2(C)CC[C@@H](O)C[C@@H]12 [Example 21] | 1000 to 10000 nM | 92%
CC[C@H]1[C@@H](O)[C@@H]2[C@H](CC[C@]3(C)[C@@H]([C@H](C)C/C=C/c4cccc(C(=O)O)c4)CC[C@@H]23)[C@@]2(C)CC[C@@H](O)C[C@@H]12 [Example 22] | 1000 to 10000 nM | 195%
CC[C@H]1[C@@H](O)[C@@H]2[C@H](CC[C@]3(C)[C@@H]([C@H](C)CCCc4cccc(C(=O)O)c4)CC[C@@H]23)[C@@]2(C)CC[C@@H](O)C[C@@H]12 [Example 23] | 1000 to 10000 nM | 292%
CC[C@H]1[C@@H](O)[C@@H]2[C@H](CC[C@]3(C)[C@@H]([C@H](C)C/C=C/c4ccc(-c5nnn[nH]5)cc4)CC[C@@H]23)[C@@]2(C)CC[C@@H](O)C[C@@H]12 [Example 24] | 1000 to 10000 nM | 234%
CC[C@H]1[C@@H](O)[C@@H]2[C@H](CC[C@]3(C)[C@@H]([C@H](C)C/C=C/c4ccc(F)cc4C(=O)O)CC[C@@H]23)[C@@]2(C)CC[C@@H](O)C[C@@H]12 [Example 25] |  | 376%
CC[C@H]1[C@@H](O)[C@@H]2[C@H](CC[C@]3(C)[C@@H]([C@H](C)CCCc4ccc(F)cc4C(=O)O)CC[C@@H]23)[C@@]2(C)CC[C@@H](O)C[C@@H]12 [Example 26] | 100 to 1000 nM | 256%
CC[C@H]1[C@@H](O)[C@@H]2[C@H](CC[C@]3(C)[C@@H]([C@H](C)C/C=C/c4cnccc4C(=O)OC)CC[C@@H]23)[C@@]2(C)CC[C@@H](O)C[C@@H]12 [Example 27] | 1000 to 10000 nM | 296%
CC[C@H]1[C@@H](O)[C@@H]2[C@H](CC[C@]3(C)[C@@H]([C@H](C)C/C=C/c4cnccc4C(=O)O)CC[C@@H]23)[C@@]2(C)CC[C@@H](O)C[C@@H]12 [Example 28] | 100 to 1000 nM | 300%
CC[C@H]1[C@@H](O)[C@@H]2[C@H](CC[C@]3(C)[C@@H]([C@H](C)C/C=C/c4ccccc4C#N)CC[C@@H]23)[C@@]2(C)CC[C@@H](O)C[C@@H]12 [Example 29] | 1000 to 10000 nM | 210%
CC[C@H]1[C@@H](O)[C@@H]2[C@H](CC[C@]3(C)[C@@H]([C@H](C)C/C=C/c4ccccc4-c4nnn[nH]4)CC[C@@H]23)[C@@]2(C)CC[C@@H](O)C[C@@H]12 [Example 30] | 100 to 1000 nM | 332%
CC[C@H]1[C@@H](O)[C@@H]2[C@H](CC[C@]3(C)[C@@H]([C@H](C)Cc4nc5cccc(C(=O)OC)c5[nH]4)CC[C@@H]23)[C@@]2(C)CC[C@@H](O)C[C@@H]12 [Example 31] | 1000 to 10000 nM | 34%
CC[C@H]1[C@@H](O)[C@@H]2[C@H](CC[C@]3(C)[C@@H]([C@H](C)Cc4nc5cccc(C(=O)O)c5[nH]4)CC[C@@H]23)[C@@]2(C)CC[C@@H](O)C[C@@H]12 [Example 32] | 1000 to 10000 nM | 24%
CC[C@H]1[C@@H](O)[C@@H]2[C@H](CC[C@]3(C)[C@@H]([C@H](C)CC4CC4c4cccc(C(=O)O)c4)CC[C@@H]23)[C@@]2(C)CC[C@@H](O)C[C@@H]12 (stereo partly shown) [Example 33] | 1000 to 10000 nM | 229%
